Source: ChEMBL document CHEMBL3044743, “Synthesis and Phytotoxic Activities of N-Substituted Phenyl Isothiazolone Derivatives” (J Pestic Sci, 2003)

Assays:
Scenedesmus acutus = assay: Phytotoxicity against Scenedesmus acutus assessed as ethane production level per ml of packed cell volume at 10 uM after 20 hr by gas chromatography; assay type: functional
[1] = target: T1, Protoporphyrinogen IX oxidase (Zea mays) (UniProt Q9FYV8); assay: Inhibition of protoporphyrinogen IX oxidase in Zea mays cv. DK212MF (maize) seedlings assessed as protoporphyrin IX formation at 10 uM after 5 min by spectrophotometry
T1 sequence (whole entry): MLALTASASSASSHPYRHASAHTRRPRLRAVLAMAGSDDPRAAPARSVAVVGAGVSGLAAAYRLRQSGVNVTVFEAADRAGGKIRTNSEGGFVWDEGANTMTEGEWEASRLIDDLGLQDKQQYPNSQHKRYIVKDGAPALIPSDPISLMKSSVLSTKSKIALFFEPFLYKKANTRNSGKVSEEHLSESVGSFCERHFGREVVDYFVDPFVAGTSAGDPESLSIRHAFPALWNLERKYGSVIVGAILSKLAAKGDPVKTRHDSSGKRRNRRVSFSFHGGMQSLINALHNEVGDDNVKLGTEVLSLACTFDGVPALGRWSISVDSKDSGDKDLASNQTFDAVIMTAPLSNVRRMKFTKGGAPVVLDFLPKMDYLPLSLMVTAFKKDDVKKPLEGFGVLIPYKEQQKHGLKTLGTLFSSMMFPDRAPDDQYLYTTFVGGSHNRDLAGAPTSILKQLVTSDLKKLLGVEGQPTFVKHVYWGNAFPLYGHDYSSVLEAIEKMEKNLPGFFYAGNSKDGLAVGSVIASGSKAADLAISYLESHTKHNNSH

Which Activity (Scenedesmus acutus) does the source give for `CC(C)OC(=O)c1cc(N2C(=O)C3=C(CCCC3)S2(=O)=O)ccc1Cl` here?
The Activity was 12 nmol/mL.

How did the Activity (Scenedesmus acutus) turn out when `O=C1C2=C(CCCC2)S(=O)(=O)N1c1ccc(Cl)cc1` was run?
Its Activity is 12 nmol/mL.

How did the Activity (Scenedesmus acutus) turn out when `CC(C)OC(=O)c1cc(-n2c(=O)c3c([s+]2[O-])CCCC3)ccc1Cl` (stereo not drawn) was run?
The Activity was 3 nmol/mL.

Which Activity (Scenedesmus acutus) does the source give for `O=C1C2=C(CCCC2)C(=O)N1c1cc(OC2CCCC2)c(Cl)cc1F` here?
The Activity was 12 nmol/mL.

Which Activity (Scenedesmus acutus) does the source give for `CC(C)OC(=O)c1cc(N2C(=O)C3=C(CCCC3)C2=O)ccc1Cl` here?
The Activity was 12 nmol/mL.

`O=C1C2=C(CCCC2)S(=O)(=O)N1c1cc(OC2CCCC2)c(Cl)cc1F` was tested. Which Activity (Scenedesmus acutus) did it give?
The Activity was 3 nmol/mL.

How did the Activity (Scenedesmus acutus) turn out when `CC(C)OC(=O)c1cc(-n2sc3c(c2=O)CCCC3)ccc1Cl` was run?
The Activity was 3 nmol/mL.

`O=c1c2c(sn1-c1ccc(Cl)cc1)CCCC2` was tested. Which Activity (Scenedesmus acutus) did it give?
Its Activity is 7 nmol/mL.

And the inhibition [1]?
Its inhibition is 11.2%.

With `O=c1c2c([s+]([O-])n1-c1ccc(Cl)cc1)CCCC2` (stereo not drawn) as the compound, how does the Activity (Scenedesmus acutus) read?
The Activity was 3 nmol/mL.

Which Activity (Scenedesmus acutus) does the source give for `O=c1c2c(sn1-c1cc(OC3CCCC3)c(Cl)cc1F)CCCC2` here?
The Activity was 0 nmol/mL.

`O=C1C2=C(CCCC2)C(=O)N1c1ccc(Cl)cc1` [CHLOROPHTHALIUM] was tested. Which Activity (Scenedesmus acutus) did it give?
The Activity was 12 nmol/mL.

For `O=c1c2c([s+]([O-])n1-c1cc(OC3CCCC3)c(Cl)cc1F)CCCC2` (stereo not drawn), which Activity (Scenedesmus acutus) is on record?
Its Activity is 0 nmol/mL.
